Laboratory results as given in article PMC12723449, “From Pharmacophore to Warhead: NAD^+‐Targeting Triazoles as Mechanism‐Based Sirtuin Inhibitors” (Angewandte Chemie (International Ed. in English), 2025).
Where two headings read alike, the source gives them in different places.

Experiments:
Assay type in all cases: biochemical
SIRT3 = molecular target: T1, SIRT3 (Homo sapiens, UniProt Q9NTG7); assay: Fluorescence-based deacetylation assay (ZMAL-assay), SIRT3; conditions: 37 °C, assay limit 0.10 µM
T1 construct: Human SIRT3118-395 was expressed and purified as previously described.[5]; made in house
T1 sequence (Q9NTG7 118-395 limits assumed): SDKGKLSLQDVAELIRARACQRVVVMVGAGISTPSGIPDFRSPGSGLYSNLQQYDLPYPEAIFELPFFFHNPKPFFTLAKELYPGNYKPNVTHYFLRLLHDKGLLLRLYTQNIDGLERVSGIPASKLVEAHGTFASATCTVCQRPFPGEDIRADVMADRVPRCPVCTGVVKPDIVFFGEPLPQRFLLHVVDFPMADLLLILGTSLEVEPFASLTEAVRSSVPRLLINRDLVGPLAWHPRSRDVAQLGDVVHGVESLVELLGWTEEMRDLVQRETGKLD
Procedure: (§1) Determination of IC50 values (SIRT1, SIRT2, SIRT3) via fluorescence-based deacetylation assay […]
(§2) The fluorescence-based deacetylation assay was conducted in a black 384-well microplate (OptiPlate-384 F, PerkinElmer) with a total volume of 30 µL per well and a final DMSO concentration of 2% (v/v) according to a […]
(§3) concentration of 100 nM) in assay buffer (50 mM Tris, 137 mM NaCl, 2.7 mM KCl, 1m MgCl2, 0.01% Tween, 0.05 mg/mL BSA, 0.2 mM TCEP, pH 8.0), 5 µL of substrate (ZMAL, final concentration of 10.5 µM), 5 µL of NAD+ (final concentration of 500 µM) and 10 µL of inhibitor solution (final concentration of 30 µM – 0.014 µM, serial 1:3 dilutions) was incubated at 37 °C and 300 rpm for 4 h. A solution of trypsin (final concentration of 0.5 mg/mL) and nicotinamide (final concentration of 4 mM) was added and incubated at 37 °C and 300 rpm for 30 min to stop the reaction. Samples with 2% (v/v) DMSO instead of inhibitor were prepared as a positive control, and samples with 2% (v/v) DMSO instead of SIRT enzyme were prepared as a negative control. Fluorescence intensity was measured with a microplate reader (λEx = 380-10 nm, λEm = 460 nm, BMG POLARstar Optima, BMG Labtech, Germany). IC50 values were then determined using a nonlinear regression fit with Origin Pro 2019 software. All experiments were performed at least in duplicates. […]

SIRT2 = molecular target: T2, SIRT2 (Homo sapiens, UniProt Q8IXJ6); assay: Fluorescence-based demyristoylation assay (BSA-Assay)
T2 construct: For assay experiments, strep-tagged human SIRT1134−747 and SIRT256-356 were expressed and purified as previously; Strep-tag; made in house; host or cells: E. coli BL21 Star (DE3)
T2 sequence (Q8IXJ6 56-356 limits assumed): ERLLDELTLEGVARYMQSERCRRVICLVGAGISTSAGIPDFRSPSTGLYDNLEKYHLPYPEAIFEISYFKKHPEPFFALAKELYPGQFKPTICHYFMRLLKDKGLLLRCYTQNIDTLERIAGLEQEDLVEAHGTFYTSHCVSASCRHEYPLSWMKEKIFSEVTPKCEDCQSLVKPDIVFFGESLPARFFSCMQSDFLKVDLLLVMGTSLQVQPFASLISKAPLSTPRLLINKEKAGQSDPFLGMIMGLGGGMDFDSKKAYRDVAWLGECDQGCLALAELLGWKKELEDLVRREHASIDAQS
Procedure: Determination of IC50 values (SIRT2) via fluorescence-based demyristoylation assay (BSA-Assay) The fluorescence-based demyristoylation assay was conducted in a continuous manner in a black 384-well microplate (OptiPlate-384 F, PerkinElmer) with a total volume of 40 µL per well and a final DMSO concentration of 5% (v/v), following a published procedure.[9] A mixture of 14 µL SIRT2 (final concentration of 1 nM) in assay buffer (20 mM Tris, 150 mM NaCl, […], pH 7.8) freshly supplemented with 2 mg/mL of BSA, 14 µL of substrate (F4, KM = 33 ± 5 nM[9], final concentration of 40 nM) and 2 µL of inhibitor solution (final concentration of 100 µM – 0.002 µM, serial 1:2 or 1:4 dilutions) was incubated at 25 °C and 350 rpm for 5 min. Samples with 5% (v/v) DMSO instead of inhibitor were measured as a positive control, and samples with assay buffer and 5% (v/v) DMSO instead of SIRT2 were measured as a negative control. The reaction was started with the addition of 10 µL NAD+ (final concentration of 500 µM) and the product formation was immediately monitored by the change of the fluorescence intensity at 25 °C for 20 min. For NAD+ preincubation experiments, instead of the substrate, 10 µL of NAD+ (final concentration of 500 µM) was added to the solution and incubated at 25 °C and 350 rpm for 15 min. The reaction was started with the addition of 14 µL substrate (final concentration of 40 nM) and the product formation was immediately monitored by the change of the fluorescence intensity at 25 °C every 60 s for 20 min using a microplate reader (λEx = 485 nm, λEm = 530-10 nm, BMG POLARstar Optima, BMG Labtech, Germany).
The activity was normalized using the positive control as 100% and the negative control as 0%. The normalized activity (v/v0) was plotted as a function of the logarithm of the inhibitor concentration [I], and a nonlinear fit was performed according to the following equation to determine the IC50 value.[9] […]

SIRT1 = molecular target: T3, SIRT1 (Homo sapiens, UniProt Q96EB6); assay: Fluorescence-based deacetylation assay (ZMAL-assay), SIRT1; conditions: 37 °C, assay limit 0.10 µM
T3 construct: For assay experiments, strep-tagged human SIRT1134−747 and SIRT256-356 were expressed and purified as previously; Strep-tag; made in house; host or cells: E. coli BL21 Star (DE3)
T3 sequence (Q96EB6 134-747 limits assumed): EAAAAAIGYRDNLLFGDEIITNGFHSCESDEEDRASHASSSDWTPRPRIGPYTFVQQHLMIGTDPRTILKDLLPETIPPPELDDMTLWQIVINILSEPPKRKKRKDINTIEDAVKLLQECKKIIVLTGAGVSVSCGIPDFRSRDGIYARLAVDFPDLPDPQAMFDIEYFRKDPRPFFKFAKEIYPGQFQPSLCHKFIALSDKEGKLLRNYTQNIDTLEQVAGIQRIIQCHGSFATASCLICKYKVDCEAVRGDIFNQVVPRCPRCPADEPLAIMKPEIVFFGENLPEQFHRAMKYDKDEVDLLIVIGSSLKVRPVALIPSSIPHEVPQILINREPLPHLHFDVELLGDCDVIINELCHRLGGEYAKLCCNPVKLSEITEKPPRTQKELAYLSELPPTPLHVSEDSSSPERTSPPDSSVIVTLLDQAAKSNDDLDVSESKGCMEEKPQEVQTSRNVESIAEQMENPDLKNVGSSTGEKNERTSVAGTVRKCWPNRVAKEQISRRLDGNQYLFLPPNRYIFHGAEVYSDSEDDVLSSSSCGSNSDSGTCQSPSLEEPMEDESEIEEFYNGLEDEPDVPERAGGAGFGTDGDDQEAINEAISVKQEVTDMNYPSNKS
Procedure: as §1, §2, §3

[1] = BSA-Assay, 25 °C, read-out: SIRT2 (demyr.) IC50

SMILES: CCCCCCCCCCCCc1cn(CCCC[C@H](NC(=O)[C@H](CCCCN)NC(=O)[C@@H]2CCCN2C(=O)[C@H](CC(C)C)NC(=O)[C@H](C)NC(=O)[C@H](CCC(=O)O)NC(C)=O)C(=O)N[C@H](C(=O)NCC(=O)NCC(N)=O)[C@@H](C)O)nn1 [Compound 6]
- IC50 (SIRT3; read-out: SIRT3 (deac.) IC50): 130 ± 10 nM
- IC50 (SIRT2; 15 min NAD+ preincubation, read-out: IC50, SIRT2 demyristoylation after NAD+ preincubation): 3.6 ± 0.6 nM
- IC50 (SIRT2; [1]): 30 ± 10 nM
- IC50 (SIRT2; fatty-acylated substrate, without NAD+ preincubation, read-out: IC50, SIRT2 demyristoylation): 28 ± 6 nM
- IC50 (SIRT1; read-out: SIRT1 (deac.) IC50): < 100 nM

SMILES: COCCn1cc(COc2cccc(Cc3cnc(NC(=O)CSc4nc(C)cc(C)n4)s3)c2)nn1 [Compound 1, reference compound]
- SIRT3 (deac.) IC50 (SIRT3): n.i.
- IC50 (SIRT2; [1]): 660 ± 100 nM
- SIRT1 (deac.) IC50 (SIRT1): n.i.

SMILES: Cc1cc(C)nc(SCC(=O)Nc2ncc(Cc3cccc(OCc4c[nH]nn4)c3)s2)n1 [Compound 7]
- SIRT3 (deac.) IC50 (SIRT3): n.i.
- IC50 (SIRT2; [1]): > 10000 nM
- SIRT1 (deac.) IC50 (SIRT1): n.i.
